{"source": "patent US8822517B2", "about": "“Arylosulfonamides for the treatment of CNS diseases” (Adamed SP. Z O.O., priority 2010, dated 2014)", "key": {"[1]": {"tested_on": "adrenergic α1 receptor", "experiment": "Binding assay α1 (non-selective), [3H]prazosin, rat cerebral cortex", "conditions": "percent inhibition of control specific binding; compounds tested at 1×10^−6 M", "in_short": "(§1)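 Total binding and binding under an excess of unlabelled competitor were both measured, the difference giving specific binding. Counts came from scintillation detection, and compound concentration was 1×10^−6 M.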"}, "[2]": {"biological_target": "T1, histaminergic H1 receptor (Homo sapiens, UniProt P35367)", "T1 sequence (P35367 whole entry)": "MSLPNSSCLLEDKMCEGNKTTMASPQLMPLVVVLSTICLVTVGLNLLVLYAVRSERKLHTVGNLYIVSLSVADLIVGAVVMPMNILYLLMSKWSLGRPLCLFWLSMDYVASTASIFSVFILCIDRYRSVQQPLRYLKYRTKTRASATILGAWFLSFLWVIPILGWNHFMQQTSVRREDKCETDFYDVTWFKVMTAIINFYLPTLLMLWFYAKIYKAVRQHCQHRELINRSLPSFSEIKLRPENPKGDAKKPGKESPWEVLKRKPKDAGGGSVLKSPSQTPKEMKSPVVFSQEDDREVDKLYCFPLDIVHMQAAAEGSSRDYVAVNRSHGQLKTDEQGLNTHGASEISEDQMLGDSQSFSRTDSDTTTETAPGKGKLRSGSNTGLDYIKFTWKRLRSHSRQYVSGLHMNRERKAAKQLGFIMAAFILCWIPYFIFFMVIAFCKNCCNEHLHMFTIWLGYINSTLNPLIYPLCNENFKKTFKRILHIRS", "experiment": "Binding assay H1 (h), [3H]pyrilamine, HEK-293 cells", "design": "expressed in transfected cells; host or cells: HEK-293 cells", "conditions": "read-out: H1 [%]", "in_short": "as §1"}, "[3]": {"biological_target": "T2, serotoninergic 5-HT1A receptor (Homo sapiens, UniProt P08908)", "T2 sequence (P08908 1-422)": "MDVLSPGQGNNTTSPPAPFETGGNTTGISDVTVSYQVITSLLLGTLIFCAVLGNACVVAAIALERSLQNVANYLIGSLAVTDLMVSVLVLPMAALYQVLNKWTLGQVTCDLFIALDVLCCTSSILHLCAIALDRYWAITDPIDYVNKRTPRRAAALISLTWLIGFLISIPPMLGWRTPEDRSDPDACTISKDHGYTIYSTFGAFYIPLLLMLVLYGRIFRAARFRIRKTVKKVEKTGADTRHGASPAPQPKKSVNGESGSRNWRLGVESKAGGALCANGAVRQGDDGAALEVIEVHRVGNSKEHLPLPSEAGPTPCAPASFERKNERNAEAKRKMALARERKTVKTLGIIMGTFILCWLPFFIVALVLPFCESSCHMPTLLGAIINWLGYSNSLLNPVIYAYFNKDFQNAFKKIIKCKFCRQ", "experiment": "Binding assay 5-HT1A (h), [3H]8-OH-DPAT, HEK-293 cells", "design": "expressed in transfected cells; host or cells: HEK-293 cells", "conditions": "read-out: 5-HT1A", "in_short": "as §1"}, "[4]": {"tested_on": "sigma σ receptor", "experiment": "Binding assay σ (non-selective), [3H]DTG, rat cerebral cortex", "conditions": "percent inhibition of control specific binding; compounds tested at 1×10^−6 M", "in_short": "as §1"}, "[5]": {"biological_target": "T3, adrenergic α2C receptor (Homo sapiens, UniProt P18825)", "T3 sequence (P18825 1-462)": "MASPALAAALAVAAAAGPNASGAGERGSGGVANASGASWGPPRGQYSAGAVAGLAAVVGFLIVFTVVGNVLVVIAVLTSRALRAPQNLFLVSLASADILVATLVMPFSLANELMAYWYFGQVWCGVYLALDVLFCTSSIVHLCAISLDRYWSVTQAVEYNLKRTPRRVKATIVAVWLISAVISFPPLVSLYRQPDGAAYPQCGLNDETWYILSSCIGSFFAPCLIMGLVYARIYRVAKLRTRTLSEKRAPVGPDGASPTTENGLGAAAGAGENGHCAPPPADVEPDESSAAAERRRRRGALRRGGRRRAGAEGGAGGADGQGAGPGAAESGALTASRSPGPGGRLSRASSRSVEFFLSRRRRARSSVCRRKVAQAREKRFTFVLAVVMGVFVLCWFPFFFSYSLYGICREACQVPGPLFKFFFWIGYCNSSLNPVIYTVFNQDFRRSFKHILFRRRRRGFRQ", "experiment": "Binding assay α2C (h), [3H]RX 821002, CHO cells", "design": "expressed in transfected cells; host or cells: CHO cells", "conditions": "read-out: α2C [%]", "in_short": "as §1"}, "[6]": {"biological_target": "T1, histaminergic H1 receptor", "experiment": "Cellular functional assay, histaminergic H1 receptor (agonism/antagonism)", "type": "cell-based", "experimental": "(§2) The compounds were tested at the concentration of 1×10^−6M.\n(§3) In the Tables ag refers to agonism, and antag to antagonism)."}, "[7]": {"biological_target": "hERG potassium channels (Homo sapiens, UniProt Q12809)", "sequence (Q12809 whole entry)": "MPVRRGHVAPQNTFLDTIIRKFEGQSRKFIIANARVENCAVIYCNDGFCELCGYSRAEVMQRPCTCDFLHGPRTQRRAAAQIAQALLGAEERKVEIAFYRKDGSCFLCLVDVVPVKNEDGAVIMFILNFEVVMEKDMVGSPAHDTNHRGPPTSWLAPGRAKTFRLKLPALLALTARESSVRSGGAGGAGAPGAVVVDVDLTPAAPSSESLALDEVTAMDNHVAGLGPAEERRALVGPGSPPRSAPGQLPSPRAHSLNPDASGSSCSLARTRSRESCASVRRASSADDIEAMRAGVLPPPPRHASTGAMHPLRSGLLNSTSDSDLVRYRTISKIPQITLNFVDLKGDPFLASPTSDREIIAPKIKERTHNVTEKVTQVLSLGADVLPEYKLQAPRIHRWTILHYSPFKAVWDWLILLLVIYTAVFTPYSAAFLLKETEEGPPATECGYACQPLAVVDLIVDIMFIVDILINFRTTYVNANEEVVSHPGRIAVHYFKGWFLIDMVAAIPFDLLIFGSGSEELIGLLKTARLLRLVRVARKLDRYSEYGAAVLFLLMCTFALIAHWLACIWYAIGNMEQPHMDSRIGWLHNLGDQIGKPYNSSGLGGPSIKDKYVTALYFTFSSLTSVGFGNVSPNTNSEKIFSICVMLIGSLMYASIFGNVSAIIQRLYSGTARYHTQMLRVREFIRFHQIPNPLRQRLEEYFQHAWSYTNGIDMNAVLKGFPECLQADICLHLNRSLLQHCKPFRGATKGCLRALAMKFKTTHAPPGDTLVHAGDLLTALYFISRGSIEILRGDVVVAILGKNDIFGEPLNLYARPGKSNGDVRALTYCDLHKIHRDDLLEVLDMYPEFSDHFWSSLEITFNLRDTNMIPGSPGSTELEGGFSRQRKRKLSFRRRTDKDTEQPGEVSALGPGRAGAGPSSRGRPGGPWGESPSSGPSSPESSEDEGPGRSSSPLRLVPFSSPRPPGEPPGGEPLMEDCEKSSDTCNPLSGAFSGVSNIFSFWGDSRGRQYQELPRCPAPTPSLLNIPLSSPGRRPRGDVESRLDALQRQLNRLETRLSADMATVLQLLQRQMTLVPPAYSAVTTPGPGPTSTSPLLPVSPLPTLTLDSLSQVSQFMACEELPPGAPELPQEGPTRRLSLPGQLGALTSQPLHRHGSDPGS", "experiment": "hERG potassium channel block, electrophysiology (IonWorks Quattro), CHO cells", "method": "Ability to block hERG potassium channels was determined using the electrophysiological method and cloned hERG potassium channels (KCNH2 gene, expressed in CHO cells) as biological material. The effects were evaluated using IonWorks™ Quattro system (MDS-AT).\nhERG current was elicited using a pulse pattern with fixed amplitudes (conditioning prepulse: −80 mV for 25 ms; test pulse: +40 mV for 80 ms) from a holding potential of 0 mV. hERG current was measured as a difference between the peak current at 1 ms after the test step to +40 mV and the steady-state current at the end of the step to +40 mV.\nData acquisition and analyses was performed using the IonWorks Quattro™ system operation software (version 2.0.2; Molecular Devices Corporation, Union City, Calif.). Data were corrected for leak current."}, "[8]": {"biological_target": "T3, adrenergic α2C receptor", "experiment": "Cellular functional assay, adrenergic α2C receptor (agonism/antagonism)", "type": "cell-based", "experimental": "as §2, §3"}, "[9]": {"biological_target": "T4, muscarinic M3 receptor (Homo sapiens, UniProt P20309)", "T4 construct": "expressed in transfected cells; host or cells: CHO cells", "T4 sequence (P20309 whole entry)": "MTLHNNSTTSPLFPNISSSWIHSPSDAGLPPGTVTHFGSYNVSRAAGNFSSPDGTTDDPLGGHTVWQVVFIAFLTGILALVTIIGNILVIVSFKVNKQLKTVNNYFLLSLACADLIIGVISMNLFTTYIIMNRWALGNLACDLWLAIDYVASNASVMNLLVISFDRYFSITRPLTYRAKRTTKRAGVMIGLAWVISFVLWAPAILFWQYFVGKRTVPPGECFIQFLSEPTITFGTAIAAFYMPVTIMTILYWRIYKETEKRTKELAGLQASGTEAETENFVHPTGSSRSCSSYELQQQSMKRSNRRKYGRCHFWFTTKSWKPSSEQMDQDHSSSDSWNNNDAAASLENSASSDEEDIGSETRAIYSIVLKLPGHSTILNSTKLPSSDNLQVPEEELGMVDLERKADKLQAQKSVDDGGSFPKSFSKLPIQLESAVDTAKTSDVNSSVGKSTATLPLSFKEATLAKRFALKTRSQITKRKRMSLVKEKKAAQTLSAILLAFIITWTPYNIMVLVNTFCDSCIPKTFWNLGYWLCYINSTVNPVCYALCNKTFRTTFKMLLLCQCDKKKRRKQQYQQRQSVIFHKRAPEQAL", "experiment": "Binding assay M3 (h), [3H]4-DAMP, CHO cells", "conditions": "read-out: M3 [%]", "in_short": "as §1"}, "[10]": {"biological_target": "serotoninergic 5-HT2A receptor (Homo sapiens, UniProt P28223)", "sequence (P28223 whole entry)": "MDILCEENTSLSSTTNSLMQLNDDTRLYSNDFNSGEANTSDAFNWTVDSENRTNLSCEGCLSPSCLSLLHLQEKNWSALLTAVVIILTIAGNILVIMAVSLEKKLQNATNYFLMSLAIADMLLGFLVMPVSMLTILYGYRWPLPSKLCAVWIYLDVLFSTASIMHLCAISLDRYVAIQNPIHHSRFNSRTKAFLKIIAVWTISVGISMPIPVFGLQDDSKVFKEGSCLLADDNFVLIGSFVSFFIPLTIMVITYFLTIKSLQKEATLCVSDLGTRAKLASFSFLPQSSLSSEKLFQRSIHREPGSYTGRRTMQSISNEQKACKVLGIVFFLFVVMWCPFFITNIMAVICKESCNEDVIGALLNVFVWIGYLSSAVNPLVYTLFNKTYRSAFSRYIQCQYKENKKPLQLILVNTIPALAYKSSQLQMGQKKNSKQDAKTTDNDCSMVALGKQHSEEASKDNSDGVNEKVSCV", "experiment": "Binding assay 5-HT2A (h), [3H]ketanserin, HEK-293 cells", "design": "expressed in transfected cells; host or cells: HEK-293 cells", "conditions": "read-out: 5-HT2A", "in_short": "as §1"}, "[11]": {"biological_target": "dopaminergic D2 receptor (Homo sapiens, UniProt P14416)", "sequence (P14416 1-414 isoform P14416-2)": "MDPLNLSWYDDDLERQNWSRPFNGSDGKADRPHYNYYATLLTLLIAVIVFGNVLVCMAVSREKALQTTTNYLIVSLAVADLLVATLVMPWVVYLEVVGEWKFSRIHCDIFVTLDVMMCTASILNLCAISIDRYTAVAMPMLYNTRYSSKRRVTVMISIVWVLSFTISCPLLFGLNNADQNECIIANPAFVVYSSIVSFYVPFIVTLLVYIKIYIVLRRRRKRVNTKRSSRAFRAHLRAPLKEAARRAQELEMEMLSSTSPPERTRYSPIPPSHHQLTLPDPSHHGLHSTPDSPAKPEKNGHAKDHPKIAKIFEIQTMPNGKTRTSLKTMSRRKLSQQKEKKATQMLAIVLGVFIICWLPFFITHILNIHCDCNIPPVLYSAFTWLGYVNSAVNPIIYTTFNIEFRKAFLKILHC", "experiment": "Binding assay D2S (h), [3H]methyl-spiperone, HEK-293 cells", "design": "expressed in transfected cells; host or cells: HEK-293 cells", "conditions": "read-out: D2 [%]", "in_short": "as §1"}, "[12]": {"biological_target": "dopaminergic D3 receptor (Homo sapiens, UniProt P35462)", "sequence (P35462 whole entry)": "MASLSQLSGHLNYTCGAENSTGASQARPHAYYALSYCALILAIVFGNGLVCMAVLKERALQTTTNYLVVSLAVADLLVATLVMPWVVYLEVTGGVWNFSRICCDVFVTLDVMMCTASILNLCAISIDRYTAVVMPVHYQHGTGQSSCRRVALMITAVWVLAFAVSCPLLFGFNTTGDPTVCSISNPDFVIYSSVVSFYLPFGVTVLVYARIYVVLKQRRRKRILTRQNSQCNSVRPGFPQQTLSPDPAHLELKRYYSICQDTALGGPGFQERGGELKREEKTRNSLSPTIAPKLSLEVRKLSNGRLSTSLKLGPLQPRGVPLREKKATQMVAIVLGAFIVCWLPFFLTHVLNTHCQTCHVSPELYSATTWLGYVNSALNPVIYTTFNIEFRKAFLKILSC", "experiment": "Binding assay D3 (h), [3H]methyl-spiperone, CHO cells", "design": "expressed in transfected cells; host or cells: CHO cells", "conditions": "read-out: D3 [%]", "in_short": "as §1"}, "[13]": {"biological_target": "serotoninergic 5-HT6 receptor (Homo sapiens, UniProt P50406)", "sequence (P50406 whole entry)": "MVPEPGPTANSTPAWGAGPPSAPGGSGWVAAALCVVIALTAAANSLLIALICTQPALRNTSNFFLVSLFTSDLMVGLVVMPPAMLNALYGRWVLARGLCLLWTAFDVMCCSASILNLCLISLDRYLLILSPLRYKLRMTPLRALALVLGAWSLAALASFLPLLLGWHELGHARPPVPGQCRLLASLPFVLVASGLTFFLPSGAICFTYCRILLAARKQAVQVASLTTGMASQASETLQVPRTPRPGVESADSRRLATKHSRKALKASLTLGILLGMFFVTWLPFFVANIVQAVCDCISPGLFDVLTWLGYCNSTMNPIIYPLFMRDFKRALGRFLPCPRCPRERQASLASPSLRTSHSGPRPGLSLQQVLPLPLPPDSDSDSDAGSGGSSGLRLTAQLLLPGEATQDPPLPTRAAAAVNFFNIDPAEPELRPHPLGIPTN", "experiment": "Binding assay 5-HT6 (h), [3H]LSD, CHO cells", "design": "expressed in transfected cells; host or cells: CHO cells", "conditions": "read-out: 5-HT6", "in_short": "as §1"}}, "data": [{"smiles": "O=S(=O)(NCCCCN1CCN(c2nsc3ccccc23)CC1)c1ccc2ccccc2c1", "note": "[Compound 2, N-(4-(4-(1,2-Benzothiazol-3-yl)piperazin-1-yl)butyl)naphthalene-2-sulphonamide]", "values": [{"measurement": "α1 [%]", "setting": "[1]", "result": 97, "unit": "%"}, {"measurement": "inhibition at 1 µM", "setting": "[2]", "result": 94, "unit": "%"}, {"measurement": "inhibition at 1 µM", "setting": "[3]", "result": 99, "unit": "%"}, {"measurement": "σ [%]", "setting": "[4]", "result": 65, "unit": "%"}, {"measurement": "inhibition at 1 µM", "setting": "[5]", "result": 101, "unit": "%"}, {"measurement": "activation at 1 µM", "setting": "[6]; read-out: H1 -ag [%]", "result": -1, "unit": "%"}, {"measurement": "inhibition at 1 µM", "setting": "[6]; read-out: H1 -antag. [%]", "result": 48, "unit": "%"}, {"measurement": "hERG [%]", "setting": "[7]", "result": 14, "unit": "%"}, {"measurement": "activation at 1 µM", "setting": "[8]; read-out: α2C −ag [%]", "result": -8, "unit": "%"}, {"measurement": "inhibition at 1 µM", "setting": "[8]; read-out: α2C −antag. [%]", "result": 30, "unit": "%"}, {"measurement": "inhibition at 1 µM", "setting": "[9]", "result": 17, "unit": "%"}, {"measurement": "inhibition at 1 µM", "setting": "[10]", "result": 100, "unit": "%"}, {"measurement": "inhibition at 1 µM", "setting": "[11]", "result": 98, "unit": "%"}, {"measurement": "inhibition at 1 µM", "setting": "[12]", "result": 100, "unit": "%"}, {"measurement": "inhibition at 1 µM", "setting": "[13]", "result": 97, "unit": "%"}]}]}
